Results taken from patent US6703397B2, “Pyrimidinyl methyl indole derivatives with antibacterial activity” (Basilea Pharmaceutica AG, priority 2000, dated 2004).
In brackets after ≈: the same amount, converted by molar mass. Where two headings read alike, the source gives them in different places.

What was measured:
[1] = system: Streptococcus pneumoniae ATCC 49619; experiment: MIC against Streptococcus pneumoniae ATCC 49619 (trimethoprim- and penicillin-susceptible reference strain); type: cell-based
Protocol: The following Tables 1 and 2 contain inhibitory concentrations determined in the above test for representative members of the class of compound defined by formula I. The following microorganisms were tested: Col. 1: […]

[2] = system: Streptococcus pneumoniae 1/1; experiment: MIC against Streptococcus pneumoniae 1/1 (trimethoprim- and penicillin-resistant clinical isolate, serotype 6); type: cell-based
Protocol: The following Tables 1 and 2 contain inhibitory concentrations determined in the above test for representative members of the class of compound defined by formula I. The following microorganisms were tested: […]
Col. 2: MIC Spn1/1; μg/ml (Streptococcus pneumoniae 1/1, Trimethoprim- and Penicillin-resistant, Serotype 6; clinical isolate, stored at −80° C.). Lit.: H. Locher et al., Can. J. Infect. Dis. 6: Suppl. C, p 469C.

[3] = target: purified DHFR of strain Spn1/1 (Streptococcus pneumoniae serotype 4, UniProt Q54801, E20D/I100L/L135F/P70S/Q81H); experiment: biochemical
From the text: Col. 3: DHFR Spn1/1; μM)—the IC50-values in μM against the purified DHFR of the above strain Spn1/1; of Streptococcus pneumoniae.

[4] = ATCC49619, Streptococcus pneumoniae ATCC 49619, trimethoprim- and penicillin-susceptible, read-out: Spn 49619 MIC
[5] = Streptococcus pneumoniae 1/1, trimethoprim- and penicillin-resistant, serotype 6, read-out: Spn 1/1 MIC

purified DHFR of strain Spn1/1, sequence (Q54801 whole entry E20D/P70S/Q81H/I100L/L135F): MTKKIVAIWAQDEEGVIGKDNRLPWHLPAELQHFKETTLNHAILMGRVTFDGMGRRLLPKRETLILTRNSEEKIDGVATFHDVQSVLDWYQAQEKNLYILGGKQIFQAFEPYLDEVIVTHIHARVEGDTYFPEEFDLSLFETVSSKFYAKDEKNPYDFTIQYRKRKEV

Row | Compound | Spn 49619 MIC ([1]; Streptococcus pneumoniae ATCC 49619, trimethoprim- and penicillin-susceptible) [µg/mL] | Spn 1/1 MIC ([2]; Streptococcus pneumoniae 1/1, trimethoprim- and penicillin-resistant, serotype 6) [µg/mL] | IC50 ([3]; purified DHFR of S. pneumoniae strain Spn1/1, read-out: Spn 1/1 IC50) [nM] | MIC [1, 4] [µg/mL] | MIC [2, 5] [µg/mL] | IC50 [3] [nM] | MIC ([1]; Streptococcus pneumoniae, ATCC49619, read-out: Spn 49619 MIC) [µg/mL] | MIC ([2]; Streptococcus pneumoniae, 1/1, read-out: Spn 1/1 MIC) [µg/mL]
1 | 6-(2,4-Diamino-pyrimidin-5-ylmethyl)-4-ethoxy-indole-1-sulfonic Acid dimethylamide [Example 2e] | 0.06 | 4 | 110 | – | – | – | – | –
2 | CCn1ccc2c(OCC3CCC3)cc(Cc3cnc(N)nc3N)cc21 [Example 7f, 5-(4-Cyclobutylmethoxy-1-ethyl-1H-indol-6-ylmethyl)-pyrimidine-2,4-diamine] | – | – | – | 0.5 (≈ 1.42 µM) | 2 (≈ 5.69 µM) | 41 | – | –
3 | CCn1cc(C)c2c(OS(=O)(=O)CC3CC3)cc(Cc3cnc(N)nc3N)cc21 [Example 12b, Cyclopropyl-methanesulfonic acid 6-(2,4-diamino-pyrimidin-5-ylmethyl)-1-ethyl-3-methyl-1H-indol-4-yl ester] | – | – | – | ≤ 0.015 | 4 (≈ 9.63 µM) | 3.7 | – | –
4 | CCC(C)S(=O)(=O)Oc1cc(Cc2cnc(N)nc2N)cc2c1ccn2CC (racemic) [Example 8d, rac-Butane-2-sulfonic acid 6-(2,4-diamino-pyrimidin-5-ylmethyl)-1-ethyl-1H-indol-4-yl ester] | – | – | – | 0.03 (≈ 0.0743 µM) | 1 (≈ 2.48 µM) | 1.8 | – | –
5 | CCn1ccc2c(OS(=O)(=O)CC3CC3)cc(Cc3cnc(N)nc3N)cc21 [Example 8b, Cyclopropyl-methanesulfonic acid 6-(2,4-diamino-pyrimidin-5-ylmethyl)-1-ethyl-1H-indol-4-yl ester] | – | – | – | ≤ 0.015 | 1 (≈ 2.49 µM) | 1.5 | – | –
6 | COc1cc(Cc2cnc(N)nc2N)cc(OC)c1OC [Trimethoprim, reference compound] | – | – | – | 4 (≈ 13.8 µM) | > 32 | – | – | –
7 | CCOc1cc(Cc2cnc(N)nc2N)cc2c1c(-c1cccc(OC)c1)cn2CC [Example 17a, 5-[4-Ethoxy-1-ethyl-3-(3-methoxy-phenyl)-1H-indol-6-ylmethyl]-pyrimidine-2,4-diamine] | – | – | – | 0.5 (≈ 1.2 µM) | 8 (≈ 19.2 µM) | 6.3 | – | –
8 | CC(C)CS(=O)(=O)Oc1cc(Cc2cnc(N)nc2N)cc2c1ccn2C [Example 5d, 2-Methyl-propane-1-sulfonic acid 6-(2,4-diamino-pyrimidin-5-ylmethyl)-1-methyl-1H-indol-4-yl ester] | – | – | – | 0.125 (≈ 0.321 µM) | 4 (≈ 10.3 µM) | 36 | – | –
9 | CCn1ccc2c(OCC3CCCO3)cc(Cc3cnc(N)nc3N)cc21 (racemic) [Example 7i, rac-5-[1-Ethyl-4-(tetrahydro-furan-2-ylmethoxy)-1H-indol-6-ylmethyl]-pyrimidine-2,4-diamine] | – | – | – | 0.5 (≈ 1.36 µM) | 8 (≈ 21.8 µM) | 13 | – | –
10 | CCn1ccc2c(OS(=O)(=O)C(C)C)cc(Cc3cnc(N)nc3N)cc21 [Example 8a, Propane-2-sulfonic acid 6-(2,4-diamino-pyrimidin-5-ylmethyl)-1-ethyl-1H-indol-4-yl ester] | – | – | – | 0.03 (≈ 0.077 µM) | 1 (≈ 2.57 µM) | 28 | – | –
11 | CCn1cc(CN2CCOCC2)c2c(OCC3CC3)cc(Cc3cnc(N)nc3N)cc21 [Example 10a, 5-(4-Cyclopropylmethoxy-1-ethyl-3-morpholin-4-ylmethyl-1H-indol-6-ylmethyl)-pyrimidine-2,4-diamine] | – | – | – | 0.25 (≈ 0.573 µM) | 8 (≈ 18.3 µM) | 180 | – | –
12 | CCOc1cc(Cc2cnc(N)nc2N)cc2c1cc(C)n2CC [Example 15a, 5-(4-Ethoxy-1-ethyl-2-methyl-1H-indol-6-ylmethyl)-pyrimidine-2,4-diamine] | – | – | – | 0.25 (≈ 0.768 µM) | 8 (≈ 24.6 µM) | 56 | – | –
13 | CCOc1cc(Cc2cnc(N)nc2N)cc(OCC)c1-n1cccc1 [Epiroprim, reference compound] | – | – | – | 0.125 (≈ 0.354 µM) | 4 (≈ 11.3 µM) | 190 | – | –
14 | CCn1cc(-c2cccc(OC)c2)c2c(OC)cc(Cc3cnc(N)nc3N)cc21 [Example 17b, 5-[1-Ethyl-4-methoxy-3-(3-methoxy-phenyl)-1H-indol-6-ylmethyl]-pyrimidine-2,4-diamine] | – | – | – | 0.5 (≈ 1.24 µM) | 8 (≈ 19.8 µM) | 4.3 | – | –
15 | CC(C)Oc1cc(Cc2cnc(N)nc2N)cc2c1ccn2C [Example 5b, 5-(4-Isopropoxy-1-methyl-1H-indol-6-ylmethyl)-pyrimidine-2,4-diamine] | – | – | – | 0.5 (≈ 1.61 µM) | > 8 | 170 | – | –
16 | CCn1ccc2c(OC)cc(Cc3cnc(N)nc3N)cc21 [Example 7b, 5-(1-Ethyl-4-methoxy-1H-indol-6-ylmethyl)-pyrimidine-2,4-diamine] | – | – | – | 0.5 (≈ 1.68 µM) | 8 (≈ 26.9 µM) | 410 | – | –

Row | Compound | Spn 49619 MIC ([1]; Streptococcus pneumoniae ATCC 49619, trimethoprim- and penicillin-susceptible) [µg/mL] | Spn 1/1 MIC ([2]; Streptococcus pneumoniae 1/1, trimethoprim- and penicillin-resistant, serotype 6) [µg/mL] | IC50 ([3]; purified DHFR of S. pneumoniae strain Spn1/1, read-out: Spn 1/1 IC50) [nM] | MIC [1, 4] [µg/mL] | MIC [2, 5] [µg/mL] | IC50 [3] [nM] | MIC ([1]; Streptococcus pneumoniae, ATCC49619, read-out: Spn 49619 MIC) [µg/mL] | MIC ([2]; Streptococcus pneumoniae, 1/1, read-out: Spn 1/1 MIC) [µg/mL]
17 | CCn1cc(CN2CCOCC2)c2c(OS(=O)(=O)CC3CC3)cc(Cc3cnc(N)nc3N)cc21 [Example 10e, Cyclopropyl-methanesulfonic acid 6-(2,4-diamino-pyrimidin-5-ylmethyl)-1-ethyl-3-morpholin-4-ylmethyl-1H-indol-4-yl ester] | – | – | – | 0.125 (≈ 0.25 µM) | 4 (≈ 7.99 µM) | 4.8 | – | –
18 | Cn1ccc2c(OCC3CC3)cc(Cc3cnc(N)nc3N)cc21 [Example 5a, 5-(4-Cyclopropylmethoxy-1-methyl-1H-indol-6-ylmethyl)-pyrimidine-2,4-diamine] | – | – | – | 0.25 (≈ 0.773 µM) | 4 (≈ 12.4 µM) | 110 | – | –
19 | CCn1ccc2c(OC(C)C)cc(Cc3cnc(N)nc3N)cc21 [Example 7c, 5-(1-Ethyl-4-isopropoxy-1H-indol-6-ylmethyl)-pyrimidine-2,4-diamine] | – | – | – | 0.25 (≈ 0.768 µM) | 4 (≈ 12.3 µM) | 140 | – | –
20 | CCn1cc(CN2CC(C)OC(C)C2)c2c(OS(=O)(=O)C(C)C)cc(Cc3cnc(N)nc3N)cc21 (mixture of isomers) [Example 10d, (cis/trans)-Propane-2-sulfonic acid 6-(2,4-diamino-pyrimidin-5-ylmethyl)-3-(2,6-dimethyl-morpholin-4-ylmethyl)-1-ethyl-1H-indol-4-yl ester] | – | – | – | 1 | 8 | 250 | – | –
21 | CCC(C)S(=O)(=O)Oc1cc(Cc2cnc(N)nc2N)cc2c1cc(C)n2CC (racemic) [Example 15c, rac-Butane-2-sulfonic acid 6-(2,4-diamino-pyrimidin-5-ylmethyl)-1-ethyl-2-methyl-1H-indol-4-yl ester] | – | – | – | 0.03 (≈ 0.0719 µM) | 2 (≈ 4.79 µM) | 8.7 | – | –
22 | CCn1ccc2c(OCC3OCCO3)cc(Cc3cnc(N)nc3N)cc21 [Example 7e, 5-[4-([1,3]Dioxolan-2-ylmethoxy)-1-ethyl-1H-indol-6-ylmethyl]-pyrimidine-2,4-diamine] | – | – | – | 1 (≈ 2.71 µM) | 8 (≈ 21.7 µM) | 210 | – | –
23 | CCOc1cc(Cc2cnc(N)nc2N)cc2c1ccn2CC [Example 3, 5-(4-Ethoxy-1-ethyl-1H-indol-6-ylmethyl)-pyrimidine-2,4-diamine] | – | – | – | 0.125 (≈ 0.401 µM) | 4 (≈ 12.8 µM) | 24 | – | –
24 | CCn1ccc2c(OS(=O)(=O)N(C)C)cc(Cc3cnc(N)nc3N)cc21 [Example 9, Dimethyl-sulfamic Acid 6-(2,4-diamino-pyrimidin-5-ylmethyl)-1-ethyl-1H-indol-4-yl ester] | – | – | – | 0.03 (≈ 0.0768 µM) | 2 (≈ 5.12 µM) | 29 | – | –
25 | CCn1ccc2c(OCC3CC3)cc(Cc3cnc(N)nc3N)cc21 [Example 7a, 5-(4-Cyclopropylmethoxy-1-ethyl-1H-indol-6-ylmethyl)-pyrimidine-2,4-diamine] | – | – | – | 0.125 (≈ 0.37 µM) | 4 (≈ 11.9 µM) | 21 | – | –
26 | CCn1c(C)cc2c(OCC3CC3)cc(Cc3cnc(N)nc3N)cc21 [Example 15b, 5-(4-Cyclopropylmethoxy-1-ethyl-2-methyl-1H-indol-6-ylmethyl)-pyrimidine-2,4-diamine] | – | – | – | 0.5 (≈ 1.42 µM) | 8 (≈ 22.8 µM) | 20 | – | –
27 | CCOc1cc(Cc2cnc(N)nc2N)cc2c1ccn2CC1CC1 [Example 2a, 5-(1-cyclopropylmethyl-4-ethoxy-1H-indol-6-ylmethyl)-pyrimidine-2,4-diamine] | – | – | – | 0.5 (≈ 1.48 µM) | > 8 | 110 | – | –
28 | CCn1cc(C=O)c2c(OS(=O)(=O)C(C)C)cc(Cc3cnc(N)nc3N)cc21 [Example 11, Propane-2-sulfonic acid 6-(2,4-diamino-pyrimidin-5-ylmethyl)-1-ethyl-3-formyl-1H-indol-4-yl ester] | – | – | – | – | – | 93 | 0.25 (≈ 0.599 µM) | > 8
29 | CCC(C)S(=O)(=O)Oc1cc(Cc2cnc(N)nc2N)cc2c1ccn2C (racemic) [Example 5e, rac-Butane-2-sulfonic acid 6-(2,4-diamino-pyrimidin-5-ylmethyl)-1-methyl-1H-indol-4-yl ester] | – | – | – | 0.125 (≈ 0.321 µM) | 8 (≈ 20.5 µM) | 13 | – | –
30 | CCn1cc(C)c2c(OS(=O)(=O)C(C)C)cc(Cc3cnc(N)nc3N)cc21 [Example 12a, Propane-2-sulfonic acid 6-(2,4-diamino-pyrimidin-5-ylmethyl)-1-ethyl-3-methyl-1H-indol-4-yl ester] | – | – | – | 0.125 (≈ 0.31 µM) | 4 (≈ 9.91 µM) | 15 | – | –
31 | CCOc1cc(Cc2cnc(N)nc2N)cc2c1ccn2C1CCCC1 [Example 2b, 5-(1-Cyclopentyl-4-ethoxy-1H-indol-6-ylmethyl)-pyrimidine-2,4-diamine] | – | – | – | 0.5 (≈ 1.42 µM) | 8 (≈ 22.8 µM) | 150 | – | –
